Experimental data published in US7741350B1 (Cara Therapeutics, Inc., priority 2009, dated 2010).
Read-outs that look alike come from different tables or passages of the source.

Key:
[1] = target: human CB2 receptor (hCB2) (Homo sapiens, UniProt P34972); test: cAMP assay at human CB2 receptor; type: cell-based; conditions: hCB2R, maximum measurable range 30 μM
Method: (§1) TR-FRET was measured using a 330-380 nm excitation filter, 615 nm and 665 nm emission filters, dichroic minor 380 nm and Z=10 mm. cAMP concentrations in each well were back-calculated from a cAMP standard curve run concurrently during each assay. Each plate contained 16 wells of forskolin stimulated cells and 16 wells of forskolin plus 1 μM CP55,940-treated cells. Concentrations of cAMP were expressed as a percent of the difference of these two groups of wells.

[2] = target: human CB1 receptor (hCB1) (Homo sapiens, UniProt P21554); test: cAMP assay at human CB1 receptor; type: cell-based; conditions: hCB1R; maximum measurable range 30 μM; read-out: EC50 (Potency at Human CB1 determined by cAMP Assay)
Method: The ability of each of the compounds to act as agonists or inverse agonists at human CB2 and CB1 receptors (hCB2, hCB1, respectively) and at the rat CB2 receptor (rCB2) was determined by measuring changes in intracellular cyclic AMP (cAMP) levels as described in U.S. Pat. No. 7,517,874.
as §1, with “wells. Concentration-response data including EC50 (the concentration of compound producing 50% of the maximal response) and intrinsic activity (the percent maximal activation compared to full activation by CP55, 940) were determined using a four-parameter non-linear regression algorithm (CambridgeSoft Bioassay).” for “wells.”

[3] = EC50 (Potency at Human CB2 determined by cAMP Assay)
[4] = read-out: EC50 (Potency at Human CB2 determined by cAMP Assay)

Sequence of human CB1 receptor (hCB1) (P21554 whole entry): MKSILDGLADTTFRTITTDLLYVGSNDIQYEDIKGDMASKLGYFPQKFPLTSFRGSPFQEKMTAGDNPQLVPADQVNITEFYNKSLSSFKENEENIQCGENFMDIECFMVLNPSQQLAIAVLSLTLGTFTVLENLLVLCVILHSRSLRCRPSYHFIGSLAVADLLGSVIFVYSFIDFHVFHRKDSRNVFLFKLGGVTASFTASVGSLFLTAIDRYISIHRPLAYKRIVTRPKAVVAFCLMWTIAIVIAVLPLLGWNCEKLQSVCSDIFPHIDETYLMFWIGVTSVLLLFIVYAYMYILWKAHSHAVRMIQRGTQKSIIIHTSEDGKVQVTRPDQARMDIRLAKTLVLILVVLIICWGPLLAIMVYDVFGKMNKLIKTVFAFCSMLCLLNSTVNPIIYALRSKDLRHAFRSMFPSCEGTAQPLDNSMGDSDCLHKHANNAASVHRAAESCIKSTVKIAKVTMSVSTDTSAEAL
Sequence of human CB2 receptor (hCB2) (P34972 whole entry): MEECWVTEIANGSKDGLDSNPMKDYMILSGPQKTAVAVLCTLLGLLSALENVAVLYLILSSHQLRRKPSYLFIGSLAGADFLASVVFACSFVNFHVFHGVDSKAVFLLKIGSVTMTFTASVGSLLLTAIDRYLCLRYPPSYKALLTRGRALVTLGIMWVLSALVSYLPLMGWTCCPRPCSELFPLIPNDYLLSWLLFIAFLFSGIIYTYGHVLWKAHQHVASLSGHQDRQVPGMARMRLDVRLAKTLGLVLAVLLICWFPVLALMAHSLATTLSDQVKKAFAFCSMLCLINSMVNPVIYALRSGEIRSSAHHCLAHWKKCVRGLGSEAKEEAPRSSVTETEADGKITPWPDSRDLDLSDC

## CN1CCc2c(c(-c3ccc(F)c(F)c3)nn2C(=O)N[C@@]23C[C@@H]4C[C@@H](C[C@@](O)(C4)C2)C3)C1 [Compound 55]
[1]; [3]
  EC50: < 1000 nM
[2]
  EC50: < 1000 nM

## CC(C)(C)c1csc(NC(=O)n2nc(-c3ccc(F)c(F)c3)c3c2CCOC3)n1 [Compound 56, N-(4-tert-butylthiazol-2-yl)-3-(3,4-difluorophenyl)-6,7-dihydropyrano[4,3-c]pyrazole-1(4H)-carboxamide]
[1]; [4]
  EC50: < 1000 nM
[2]
  EC50: < 1000 nM

## CC(C)(C)c1cc(NC(=O)n2nc(-c3ccc(F)c(F)c3)c3c2CCOC3)no1 [Compound 57]
[1]; [4]
  EC50: < 1000 nM
[2]
  EC50: > 1000 nM

## CNC(=O)[C@@H](NC(=O)n1nc(-c2cc(C(F)(F)F)ccc2F)c2c1CCNC2)C(C)(C)C [Compound 58, (S)—N-(3,3-dimethyl-1-(methylamino)-1-oxobutan-2-yl)-3-(2-fluoro-5-(trifluoromethyl)phenyl)-4,5,6,7-tetrahydro-1H-pyrazolo[4,3-c]pyridine-1-carboxamide]
[1]; [4]
  EC50: > 1000 nM
[2]
  EC50: < 1000 nM

## CC(C)(C)[C@H](NC(=O)n1nc(-c2ccc(F)c(F)c2)c2c1CCOC2)C(=O)N1CC[C@H](O)C1 [Compound 60, 3-(3,4-difluorophenyl)-N—((S)-1-((S)-3-hydroxypyrrolidin-1-yl)-3,3-dimethyl-1-oxobutan-2-yl)-6,7-dihydropyrano[4,3-c]pyrazole-1(4H)-carboxamide]
[1]; [3]
  EC50: < 1000 nM
[2]
  EC50: < 1000 nM

## CNC(=O)[C@@H](NC(=O)n1nc(-c2ccc(F)c(F)c2)c2c1CN(C)CC2)C(C)(C)C [Compound 61, (S)-3-(3,4-difluorophenyl)-N-(3,3-dimethyl-1-(methylamino)-1-oxobutan-2-yl)-6-methyl-4,5,6,7-tetrahydro-1H-pyrazolo[3,4-c]pyridine-1-carboxamide]
[1]; [3]
  EC50: < 1000 nM
[2]
  EC50: < 1000 nM

## CNC(=O)[C@@H](NC(=O)n1nc(-c2ccc(F)c(F)c2)c2c1CCCN2C)C(C)(C)C [Compound 62, (S)-3-(3,4-difluorophenyl)-N-(3,3-dimethyl-1-(methylamino)-1-oxobutan-2-yl)-4-methyl-4,5,6,7-tetrahydro-1H-pyrazolo[4,3-b]pyridine-1-carboxamide]
[1]; [3]
  EC50: < 1000 nM
[2]
  EC50: < 1000 nM

## CNC(=O)[C@@H](NC(=O)n1nc(-c2ccc(F)c(F)c2)c2c1CCC1(C2)OCCO1)C(C)(C)C [Compound 63, (S)-3′-(3,4-difluorophenyl)-N-(3,3-dimethyl-1-(methylamino)-1-oxobutan-2-yl)-6′,7′-dihydrospiro[[1,3]dioxolane-2,5′-indazole]-1′(4′H)-carboxamide]
[1]; [3]
  EC50: < 1000 nM
[2]
  EC50: < 1000 nM

## CNC(=O)[C@@H](NC(=O)n1nc(-c2cc(F)ccc2F)c2c1CCN(C)C2)C(C)(C)C [Compound 64, (S)-3-(2,5-difluorophenyl)-N-(3,3-dimethyl-1-(methylamino)-1-oxobutan-2-yl)-5-methyl-4,5,6,7-tetrahydro-1H-pyrazolo[4,3-c]pyridine-1-carboxamide]
[1]; [4]
  EC50: > 1000 nM
[2]
  EC50: < 1000 nM

## CCN1CCc2c(c(-c3cc(F)ccc3F)nn2C(=O)N[C@H](C(=O)NC)C(C)(C)C)C1 [Compound 65, (S)-3-(2,5-difluorophenyl)-N-(3,3-dimethyl-1-(methylamino)-1-oxobutan-2-yl)-5-ethyl-4,5,6,7-tetrahydro-1H-pyrazolo[4,3-c]pyridine-1-carboxamide]
[1]; [3]
  EC50: < 1000 nM
[2]
  EC50: < 1000 nM

## CN1CCc2c(c(-c3cc(F)ccc3F)nn2C(=O)N[C@H](CO)C(C)(C)C)C1 [Compound 66, (S)-3-(2,5-difluorophenyl)-N-(1-hydroxy-3,3-dimethylbutan-2-yl)-5-methyl-4,5,6,7-tetrahydro-1H-pyrazolo[4,3-c]pyridine-1-carboxamide]
[1]; [4]
  EC50: > 1000 nM
[2]
  EC50: < 1000 nM

## CNC(=O)[C@@H](NC(=O)n1nc(-c2ccc(F)c(F)c2)c2c1CCC(NC)C2)C(C)(C)C (stereo partly drawn) [Compound 68, 3-(3,4-difluorophenyl)-N—((S)-3,3-dimethyl-1-(methylamino)-1-oxobutan-2-yl)-5-(methylamino)-4,5,6,7-tetrahydro-1H-indazole-1-carboxamide]
[1]; [3]
  EC50: < 1000 nM
[2]
  EC50: < 1000 nM

## CNC(=O)[C@@H](NC(=O)n1nc(-c2ccc(F)c(F)c2)c2c1CCCCN2C)C(C)(C)C [Compound 69, (S)-3-(3,4-difluorophenyl)-N-(3,3-dimethyl-1-(methylamino)-1-oxobutan-2-yl)-4-methyl-5,6,7,8-tetrahydropyrazolo[4,3-b]azepine-1(4H)-carboxamide]
[1]; [3]
  EC50: < 1000 nM
[2]
  EC50: < 1000 nM

## CN1CCc2c(c(-c3cc(F)c(F)cc3F)nn2C(=O)N[C@@H](CO)c2ccccc2)C1 [Compound 70, (R)—N-(2-hydroxy-1-phenylethyl)-5-methyl-3-(2,4,5-trifluorophenyl)-4,5,6,7-tetrahydro-1H-pyrazolo[4,3-c]pyridine-1-carboxamide]
[1]; [4]
  EC50: > 1000 nM
[2]
  EC50: < 1000 nM

## CN1CCc2c(c(-c3cc(F)c(F)cc3F)nn2C(=O)N[C@H](C(=O)O)C(C)(C)C)C1 [Compound 71, (S)-3,3-dimethyl-2-(5-methyl-3-(2,4,5-trifluorophenyl)-4,5,6,7-tetrahydro-1H-pyrazolo[4,3-c]pyridine-1-carboxamido)butanoic acid]
[1]; [4]
  EC50: > 30000 nM
[2]
  EC50: > 30000 nM

## CC(C)C[C@H](NC(=O)[C@@H](NC(=O)n1nc(-c2cc(F)c(F)cc2F)c2c1CCN(C)C2)C(C)(C)C)C(N)=O [Compound 72, N—((S)-1-((S)-1-amino-4-methyl-1-oxopentan-2-ylamino)-3,3-dimethyl-1-oxobutan-2-yl)-5-methyl-3-(2,4,5-trifluorophenyl)-4,5,6,7-tetrahydro-1H-pyrazolo[4,3-c]pyridine-1-carboxamide]
[1]; [4]
  EC50: > 1000 nM
[2]
  EC50: > 1000 nM

## CN1CCc2c(c(-c3cc(F)c(F)cc3F)nn2C(=O)N[C@H](C(=O)NCCC(N)=O)C(C)(C)C)C1 [Compound 73, (S)—N-(1-(3-amino-3-oxopropylamino)-3,3-dimethyl-1-oxobutan-2-yl)-5-methyl-3-(2,4,5-trifluorophenyl)-4,5,6,7-tetrahydro-1H-pyrazolo[4,3-c]pyridine-1-carboxamide]
[1]; [4]
  EC50: > 1000 nM
[2]
  EC50: < 1000 nM

## CN1CCc2c(c(-c3cc(F)c(F)cc3F)nn2C(=O)N[C@H](C(=O)N2CCC[C@H]2C(N)=O)C(C)(C)C)C1 [Compound 74, N—((S)-1-((S)-2-carbamoylpyrrolidin-1-yl)-3,3-dimethyl-1-oxobutan-2-yl)-5-methyl-3-(2,4,5-trifluorophenyl)-4,5,6,7-tetrahydro-1H-pyrazolo[4,3-c]pyridine-1-carboxamide]
[1]; [4]
  EC50: > 1000 nM
[2]
  EC50: < 1000 nM

## CN1CCc2c(c(-c3cc(F)c(F)cc3F)nn2C(=O)N[C@H](C(=O)N2CCC[C@@H]2C(N)=O)C(C)(C)C)C1 [Compound 75, N—((S)-1-((R)-2-carbamoylpyrrolidin-1-yl)-3,3-dimethyl-1-oxobutan-2-yl)-5-methyl-3-(2,4,5-trifluorophenyl)-4,5,6,7-tetrahydro-1H-pyrazolo[4,3-c]pyridine-1-carboxamide]
[1]; [4]
  EC50: > 1000 nM
[2]
  EC50: < 1000 nM

## CNC(=O)[C@@H]1CCCN1C(=O)[C@@H](NC(=O)n1nc(-c2cc(F)c(F)cc2F)c2c1CCN(C)C2)C(C)(C)C [Compound 76, N—((S)-3,3-dimethyl-1-((S)-2-(methyl-carbamoyl)pyrrolidin-1-yl)-1-oxobutan-2-yl)-5-methyl-3-(2,4,5-trifluorophenyl)-4,5,6,7-tetrahydro-1H-pyrazolo[4,3-c]pyridine-1-carboxamide]
[1]; [4]
  EC50: > 1000 nM
[2]
  EC50: < 1000 nM
